# Laboratory results: ChEMBL document CHEMBL1212707, “Decoding endocannabinoid signaling” (Nat Chem Biol, 2009)
# pIC50: −log10 of the molar value.
# Legend:
# Brain = test: Increase in 2-arachidonoylglycerol level in mouse brain relative to untreated control; format: functional
# Mus musculus = species on record: Mus musculus; test: Inhibition of MAGL in mouse brain; format: tissue-based; details: dose or concentration not given here
# [1] = Inhibition of MAGL
smiles,measurement,setting,value
O=C(Oc1ccc([N+](=O)[O-])cc1)N1CCC(C(O)(c2ccc3c(c2)OCO3)c2ccc3c(c2)OCO3)CC1,fold change (FC),Brain,8
same,inhibition,Mus musculus,85%
same,pIC50,[1],8.10
